The values that follow come from ChEMBL document CHEMBL6153138, “Discovery of Novel Aromatic Urea-Imidazole Salt Derivatives for Cancer Therapy via Targeting ERK1/2” (J Med Chem, 2025).

The source made the active and inactive calls. No cut-off for these calls is given here. A value given as a limit tells only on which side of the number the result lay.

Sequence of Mitogen-activated protein kinase 1 (P28482 whole entry): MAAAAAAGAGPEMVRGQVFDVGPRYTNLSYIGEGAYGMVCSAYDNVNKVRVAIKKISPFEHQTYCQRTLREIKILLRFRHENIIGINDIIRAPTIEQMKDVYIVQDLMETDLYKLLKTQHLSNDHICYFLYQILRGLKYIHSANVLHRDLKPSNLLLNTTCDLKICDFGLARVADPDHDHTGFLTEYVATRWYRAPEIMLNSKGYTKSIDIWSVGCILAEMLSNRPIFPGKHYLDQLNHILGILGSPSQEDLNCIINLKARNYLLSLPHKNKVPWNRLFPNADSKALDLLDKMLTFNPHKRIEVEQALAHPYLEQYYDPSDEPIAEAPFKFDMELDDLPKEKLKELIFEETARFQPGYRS

The first assay relates to MCF7. Kind of assay: Induction of autophagy in human MCF7 cells assessed as increase in LC3B-II level at 5 uM by Western blot analysis. Type of assay: functional, cell-based.
Conditions: not given
In general terms: A western blot detects proteins with antibodies after separation by electrophoresis.
As to `CC(C)Nc1cc(-c2c[nH]c(C(=O)N[C@H](CO)c3cccc(Cl)c3)c2)c(Cl)cn1` [ULIXERTINIB], the outcome was Active.

For a further assay, the system named is MCF7. Nature of the assay: Induction of autophagy in human MCF7 cells assessed as increase in ATG5 level at 5 uM by Western blot analysis. Type of assay: functional, cell-based.
Conditions: not given
Take `CC(C)Nc1cc(-c2c[nH]c(C(=O)N[C@H](CO)c3cccc(Cl)c3)c2)c(Cl)cn1` [ULIXERTINIB]: the result was Active.

The next assay deals with MDA-MB-468. Nature of the assay: Antiproliferative activity against human MDA-MB-468 cells incubated for 48 hrs by CCK-8 method. Type of assay: functional, cell-based. The note with it: MDA-MB-468, 48 h.
As for `O=c1[nH]cc(F)c(=O)[nH]1` [FLUOROURACIL], the IC50 was above 10 µM.

`N#Cc1ccc(C[n+]2cn(C[C@H](Cc3ccccc3)NC(=O)Nc3cc(C(F)(F)F)cc(C(F)(F)F)c3)c3ccccc32)cc1`: the concentration for half-maximal inhibition (IC50) was 2.66 µM.

`O=C(Nc1cc(C(F)(F)F)cc(C(F)(F)F)c1)N[C@@H](Cc1ccccc1)Cn1c[n+](Cc2c(Cl)cccc2Cl)c2ccccc21` gave an IC50 of 3.45 µM.

Compound `O=C(Nc1ccc(F)cc1)N[C@@H](Cc1ccccc1)Cn1c[n+](Cc2ccc3ccccc3c2)c2ccccc21` yielded a concentration for half-maximal inhibition (IC50) of 2.8 µM.

As to `N#Cc1cccc(C[n+]2cn(C[C@H](Cc3ccccc3)NC(=O)Nc3cc(C(F)(F)F)cc(C(F)(F)F)c3)c3ccccc32)c1`, inhibition was half-maximal at 5.29 µM (IC50). Against the preceding compound, the IC50 is about 1.9-fold higher.

As to `CC(C)Nc1cc(-c2c[nH]c(C(=O)N[C@H](CO)c3cccc(Cl)c3)c2)c(Cl)cn1` [ULIXERTINIB], the 50% inhibitory concentration (IC50) was above 10 µM.

A further assay relates to MCF-10A. Kind of assay: Antiproliferative activity against human MCF-10A cells incubated for 48 hrs by CCK-8 method. Type of assay: functional, cell-based.
Conditions: not given
Background: Tetrazolium assays rely on reduction of a dye to a coloured formazan, in cell work by metabolically active cells.
`O=c1[nH]cc(F)c(=O)[nH]1` [FLUOROURACIL] had a half-inhibitory concentration (IC50) above 10 µM.

Consider `N#Cc1ccc(C[n+]2cn(C[C@H](Cc3ccccc3)NC(=O)Nc3cc(C(F)(F)F)cc(C(F)(F)F)c3)c3ccccc32)cc1`, for which the 50% inhibitory concentration (IC50) is above 10 µM.

With `O=C(Nc1cc(C(F)(F)F)cc(C(F)(F)F)c1)N[C@@H](Cc1ccccc1)Cn1c[n+](Cc2c(Cl)cccc2Cl)c2ccccc21`, the 50% inhibitory concentration (IC50) was above 10 µM.

Compound `O=C(Nc1ccc(F)cc1)N[C@@H](Cc1ccccc1)Cn1c[n+](Cc2ccc3ccccc3c2)c2ccccc21` gave a half-inhibitory concentration (IC50) of 8.75 µM.

`N#Cc1cccc(C[n+]2cn(C[C@H](Cc3ccccc3)NC(=O)Nc3cc(C(F)(F)F)cc(C(F)(F)F)c3)c3ccccc32)c1` registered a 50% inhibitory concentration (IC50) above 10 µM.

`CC(C)Nc1cc(-c2c[nH]c(C(=O)N[C@H](CO)c3cccc(Cl)c3)c2)c(Cl)cn1` [ULIXERTINIB] yielded a concentration for half-maximal inhibition (IC50) above 10 µM.

The subject of a further assay is MCF7. Kind of assay: Induction of autophagy in human MCF7 cells assessed as increase in Beclin-1 level at 5 uM by Western blot analysis. Type of assay: functional, cell-based.
Conditions: not given
Take `CC(C)Nc1cc(-c2c[nH]c(C(=O)N[C@H](CO)c3cccc(Cl)c3)c2)c(Cl)cn1` [ULIXERTINIB]: the outcome was Active.

The subject of a further assay is A549. Kind of assay: Antiproliferative activity against human A549 cells incubated for 48 hrs by CCK-8 method. Type of assay: functional, cell-based. Conditions: A549, 48 h.
Consider `CC(C)Nc1cc(-c2c[nH]c(C(=O)N[C@H](CO)c3cccc(Cl)c3)c2)c(Cl)cn1` [ULIXERTINIB], for which half-maximal inhibition (IC50) required 5.39 µM.

The test system of the next assay is 4T1. Nature of the assay: Antiproliferative activity against mouse 4T1 cells incubated for 48 hrs by CCK-8 method. Type of assay: functional, cell-based. The note with it: 4T1, 48 h.
The compound `O=c1[nH]cc(F)c(=O)[nH]1` [FLUOROURACIL] had a half-inhibitory concentration (IC50) above 10 µM.

Regarding `N#Cc1ccc(C[n+]2cn(C[C@H](Cc3ccccc3)NC(=O)Nc3cc(C(F)(F)F)cc(C(F)(F)F)c3)c3ccccc32)cc1`, the IC50 is above 10 µM.

Consider `O=C(Nc1cc(C(F)(F)F)cc(C(F)(F)F)c1)N[C@@H](Cc1ccccc1)Cn1c[n+](Cc2c(Cl)cccc2Cl)c2ccccc21`, for which the IC50 stood at 5.53 µM.

As to `O=C(Nc1ccc(F)cc1)N[C@@H](Cc1ccccc1)Cn1c[n+](Cc2ccc3ccccc3c2)c2ccccc21`, the IC50 came to 8.44 µM.

As to `N#Cc1cccc(C[n+]2cn(C[C@H](Cc3ccccc3)NC(=O)Nc3cc(C(F)(F)F)cc(C(F)(F)F)c3)c3ccccc32)c1`, the IC50 is above 10 µM.

Turning to `CC(C)Nc1cc(-c2c[nH]c(C(=O)N[C@H](CO)c3cccc(Cl)c3)c2)c(Cl)cn1` [ULIXERTINIB], the IC50 is above 10 µM.

The next assay concerns the target Mitogen-activated protein kinase 1 (Homo sapiens, UniProt P28482). Kind of assay: Inhibition of ERK2 (unknown origin) incubated for 60 mins by luminescence based ADP-Glo kinase assay.
Conditions: not given
With `N#Cc1ccc(C[n+]2cn(C[C@H](Cc3ccccc3)NC(=O)Nc3cc(C(F)(F)F)cc(C(F)(F)F)c3)c3ccccc32)cc1`, the IC50 amounted to 0.392 µM.

Consider `O=C(Nc1cc(C(F)(F)F)cc(C(F)(F)F)c1)N[C@@H](Cc1ccccc1)Cn1c[n+](Cc2c(Cl)cccc2Cl)c2ccccc21`, for which the midpoint of inhibition, the IC50, lay at 0.195 µM.

`O=C(Nc1ccc(F)cc1)N[C@@H](Cc1ccccc1)Cn1c[n+](Cc2ccc3ccccc3c2)c2ccccc21` displayed an IC50 of 0.394 µM.

As for `N#Cc1cccc(C[n+]2cn(C[C@H](Cc3ccccc3)NC(=O)Nc3cc(C(F)(F)F)cc(C(F)(F)F)c3)c3ccccc32)c1`, the half-inhibitory concentration (IC50) is 0.335 µM.

The test system of a further assay is HCC1937. Nature of the assay: Antiproliferative activity against human HCC1937 cells incubated for 48 hrs by CCK-8 method. Type of assay: functional, cell-based. Conditions: HCC1937, 48 h.
Regarding `O=c1[nH]cc(F)c(=O)[nH]1` [FLUOROURACIL], the IC50 worked out at 5.67 µM.

As for `N#Cc1ccc(C[n+]2cn(C[C@H](Cc3ccccc3)NC(=O)Nc3cc(C(F)(F)F)cc(C(F)(F)F)c3)c3ccccc32)cc1`, the half-inhibitory concentration (IC50) stood at 3.82 µM.

`O=C(Nc1cc(C(F)(F)F)cc(C(F)(F)F)c1)N[C@@H](Cc1ccccc1)Cn1c[n+](Cc2c(Cl)cccc2Cl)c2ccccc21` had an IC50 of 2.15 µM.

In the case of `O=C(Nc1ccc(F)cc1)N[C@@H](Cc1ccccc1)Cn1c[n+](Cc2ccc3ccccc3c2)c2ccccc21`, the IC50 is 3.2 µM.

Take `N#Cc1cccc(C[n+]2cn(C[C@H](Cc3ccccc3)NC(=O)Nc3cc(C(F)(F)F)cc(C(F)(F)F)c3)c3ccccc32)c1`: 5.96 µM corresponded to half-maximal inhibition (IC50).

In turn, `CC(C)Nc1cc(-c2c[nH]c(C(=O)N[C@H](CO)c3cccc(Cl)c3)c2)c(Cl)cn1` [ULIXERTINIB] gave an IC50 above 10 µM.

In the next assay the test system is MCF7. Kind of assay: Activation of ERK1/2 pathway in human MCF7 cells assessed as increase in EGF-induced c-Myc phosphorylation at 5 uM incubated for 30 mins by Western blot analysis. Type of assay: cell-based.
Conditions: not given
For `CC(C)Nc1cc(-c2c[nH]c(C(=O)N[C@H](CO)c3cccc(Cl)c3)c2)c(Cl)cn1` [ULIXERTINIB], the result was inactive.

The test system of the next assay is MCF7. Kind of assay: Activation of ERK1/2 pathway in human MCF7 cells assessed as increase in EGF-induced ERK phosphorylation at 5 uM incubated for 30 mins by Western blot analysis. Type of assay: cell-based. Conditions: filed as activator.
Regarding `CC(C)Nc1cc(-c2c[nH]c(C(=O)N[C@H](CO)c3cccc(Cl)c3)c2)c(Cl)cn1` [ULIXERTINIB], the result was Active.

For another assay, the system named is 5637. Nature of the assay: Antiproliferative activity against human 5637 cells incubated for 48 hrs by CCK-8 method. Type of assay: functional, cell-based. The note with it: Homo sapiens, 5637, 48 h.
`O=c1[nH]cc(F)c(=O)[nH]1` [FLUOROURACIL] displayed a concentration for half-maximal inhibition (IC50) of 7.4 µM.

Compound `CC(C)Nc1cc(-c2c[nH]c(C(=O)N[C@H](CO)c3cccc(Cl)c3)c2)c(Cl)cn1` [ULIXERTINIB] showed an IC50 above 10 µM.

Another assay has as its system MCF7. Nature of the assay: Activation of ERK1/2 pathway in human MCF7 cells assessed as increase in EGF-induced p90RSK phosphorylation at 5 uM incubated for 30 mins by Western blot analysis. Type of assay: cell-based.
Conditions: not given
With `CC(C)Nc1cc(-c2c[nH]c(C(=O)N[C@H](CO)c3cccc(Cl)c3)c2)c(Cl)cn1` [ULIXERTINIB], the result was inactive.

A further assay deals with HepG2. Nature of the assay: Antiproliferative activity against human HepG2 cells incubated for 48 hrs by CCK-8 method. Type of assay: functional, cell-based. Conditions: HepG2, 48 h.
In turn, `O=c1[nH]cc(F)c(=O)[nH]1` [FLUOROURACIL] yielded a half-inhibitory concentration (IC50) above 10 µM.

For `CC(C)Nc1cc(-c2c[nH]c(C(=O)N[C@H](CO)c3cccc(Cl)c3)c2)c(Cl)cn1` [ULIXERTINIB], 6.12 µM corresponded to half-maximal inhibition (IC50).

Another assay has as its system 4T1. Nature of the assay: Antitumor activity against mouse 4T1 cells implanted in female BALB/c mouse model assessed as tumor growth inhibition at 50 mg/kg, ip qd measured for 18 days relative to control. Type of assay: functional. Conditions: 4T1, 432 h, time 18 day, read-out: TGI.
As for `CC(C)Nc1cc(-c2c[nH]c(C(=O)N[C@H](CO)c3cccc(Cl)c3)c2)c(Cl)cn1` [ULIXERTINIB], the inhibition in vivo at 50 mg/kg turned out to be 26.9%.

The test system of a further assay is MCF7. Kind of assay: Antiproliferative activity against human MCF7 cells incubated for 48 hrs by CCK-8 method. Conditions: MCF7, 48 h. Type of assay: functional, cell-based.
Compound `O=c1[nH]cc(F)c(=O)[nH]1` [FLUOROURACIL] gave an IC50 of 6 µM.

Take `N#Cc1ccc(C[n+]2cn(C[C@H](Cc3ccccc3)NC(=O)Nc3cc(C(F)(F)F)cc(C(F)(F)F)c3)c3ccccc32)cc1`: the IC50 amounted to 5.03 µM.

Take `O=C(Nc1cc(C(F)(F)F)cc(C(F)(F)F)c1)N[C@@H](Cc1ccccc1)Cn1c[n+](Cc2c(Cl)cccc2Cl)c2ccccc21`: 3.15 µM corresponded to half-maximal inhibition (IC50).

As to `O=C(Nc1ccc(F)cc1)N[C@@H](Cc1ccccc1)Cn1c[n+](Cc2ccc3ccccc3c2)c2ccccc21`, the midpoint of inhibition, the IC50, lay at 1.98 µM.

As for `N#Cc1cccc(C[n+]2cn(C[C@H](Cc3ccccc3)NC(=O)Nc3cc(C(F)(F)F)cc(C(F)(F)F)c3)c3ccccc32)c1`, inhibition was half-maximal at 3.36 µM (IC50).

Consider `CC(C)Nc1cc(-c2c[nH]c(C(=O)N[C@H](CO)c3cccc(Cl)c3)c2)c(Cl)cn1` [ULIXERTINIB], for which the half-maximal inhibitory concentration (IC50) was above 10 µM.

The IC50 is the concentration that gives 50% inhibition.
